Assay results from US12661362B2, “Methods for the prevention and treatment of hearing loss” (Ting Therapeutics LLC, priority 2020, dated 2026).

Key:
[1] = following 2,000 mg oral use; cited from earlier work
zebrafish neuromast HCs [2] = assay: Niclosamide/ezetimibe combination hair cell protection in Cisplatin-treated zebrafish (Loewe synergy); format: in vivo; conditions: concentrations above 2 nM, cisplatin 300 μM
Procedure: Now referring to FIGS. 6A-6B, 5 dpf zebrafish were either incubated with vehicle (DMSO), cisplatin alone at 300 μM concentration, cisplatin and ezetimibe (0.002 μM to 13.3 μM), cisplatin and niclosamide (0.02 nM to 18.3 nM), or cisplatin and combination ezetimibe/niclosamide. After 6 hours, animals were transferred to fresh water for 1 hour and then sacrificed and processed for immunohistochemistry and HC count as described above. To further elucidate whether Niclosamide, synergizes with Nrf2 activators to protect zebrafish HCs from Cisplatin damage, we tested the extent of HC damage in presence of Niclosamide and a Nrf2 activator, ezetimibe.
A three-dimensional contour plot (A) showing dose response of neuromast hair cell protection in zebrafish treated with varying concentrations of niclosamide and ezetimibe mapped to synergy distribution. […] Other dose combinations showing synergy are shown in dark blue boxes. Dose combinations with scores of 0 and 1 show additive effect. *P<5×10−2; **P<10−3, ***P<10−4 versus control fish, One-sample t-test run by the Combenefit software44. Data is shown as mean±standard deviation.
Zebrafish were treated with combinations of Niclosamide (ranging from 0.02-18.3 nM) and EZ (ranging from 0.0183-13.3 μM).

FVB/NJ mice [3] = assay: Safety monitoring of drugs IP in FVB/NJ mice, with or without Cisplatin; format: in vivo, mouse
Procedure: To investigate the drugs' effects on mammalian auditory function in vivo, we first treated 5-7 weeks old FVB/NJ mice with […] drug candidates: Niclosamide (10 mg/kg/day), Ingenol (0.3 mg/kg/day), Elesclomol (5 mg/kg/day), for 4 consecutive days (IP) to monitor safety of the drugs. All tested doses were determined based on previous published data showing maximum non-toxic dose through intraperitoneal (IP) injection.
Baseline auditory brainstem response (ABR) were measured on 16 mice divided in 3 groups receiving Ingenol, Elesclomol, and Niclosamide. The mice received the drug doses described above, then on day 2 of drug injection mice also received 30 mg/kg Cisplatin (IP; 4 mice per group).

zebrafish neuromast HCs [4] = assay: NMDA excitotoxicity in zebrafish neuromast hair cells; format: in vivo; conditions: 2 nM and 18 nM; 300 μM NMDA
Procedure: (§1) Now referring to FIGS. […], representative samples of the mouse HCs at 32 kHz, the most protected frequency region shown by ABR measurement (FIG. 4E). […] Niclosamide protects NMDA-induced hair cell loss in zebrafish. Application of the N-methyl-d-aspartate (NMDA) to zebrafish neuromast HCs has also been used to mimic glutamate excitotoxicity associated with noise exposure (Katie S. Kindt and Lavinia Sheets, 2018). The results of the HC count following exposure of zebrafish to 300 μM NMDA led to hair-cell loss.
Now referring to FIGS. 5A-5F Niclosamide had protective effects on NIHL in Zebrafish and FVB/NJ mice in vivo. CIHL and NIHL share mechanistic commonalities. Now referring to FIG. 5A, to test whether Niclosamide protects HCs from excitotoxic trauma, a zebrafish model that mimics noise damage was employed, Zebrafish were exposed to the ionotropic glutamate receptor agonist, N-methyl-D-aspartate (NMDA), previously shown to cause progressive HC loss in zebrafish lateral-line organs (Sheets, 2017) with or without niclosamide. 5-dpf larvae were preincubated with 300 μM NMDA for 50 min followed by 2 hours incubation with niclosamide at 2 nM and 18.3 nM.

FVB/NJ mice [5] = assay: Cisplatin-induced hearing loss in FVB/NJ mice (ABR, DPOAE, wave-1, hair cell count); format: in vivo, mouse
Excerpt: Now referring to FIGS. 4A-4F Niclosamide attenuates Cisplatin-induced hearing loss in FVB/NJ mice. Mice: Procedures used with mice were approved by the Institutional Animal Care and Use Committee (IACUC) at the Creighton University. For functional assessments including Cisplatin and noise exposure experiments 5 to 7-week-old FVB/NJ mice obtained from Jackson Laboratory (Bar Harbor, ME, USA) were used, with a mix of males and females across experiments. For the Cisplatin and noise studies, FVB/NJ mice were treated with 10 mg/kg Niclosamide, through intraperitoneal (IP) injection. Niclosamide, was dissolved in 1% DMSO in normal saline (0.9% NaCl solution) and vortexed multiple times before injections. Treatment started 24 hours before the Cisplatin or noise-exposure and continued once daily for 3 more days. Cisplatin was injected IP at 30 mg/kg divided into 2 doses per day. Animals were given 1 mL warm sterile normal saline subcutaneously twice a day before and for 7 days after Cisplatin treatment to prevent dehydration.
Now referring to FIG. 4A, ABR tests were performed 2-3 days before Cisplatin exposure, and 5 days post-Cisplatin exposure. The experimental groups included: Cisplatin and 1% DMSO, Cisplatin and Niclosamide, Niclosamide, only, and age-matched controls receiving normal saline. For the noise experiment, auditory tests were performed 2-3 days prior to noise exposure (paradigm described below), at post-exposure day-1 to monitor temporary threshold shift (TTS) and at post-exposure day-14 to monitor permanent threshold shift (PTS). Experimental groups included: noise-exposure and normal saline, noise-exposure and Niclosamide, Niclosamide-only, and age-matched controls. Following the final auditory function measurements, mice were euthanized, and cochleae were collected for morphological assessment. Based on the results of FVB/NJ ABR/DPOAE threshold variances and power analysis, ten FVB/NJ mice per group (5 of each sex) were used in this study.
Now referring to FIG. 4B measurement of the distortion products otoacoustic emission (DPOAE) thresholds at frequencies ranging from 8 to 40 kHz in cisplatin, niclosamide, control, and cisplatin-niclosamide treated-mice.
Now referring to FIG. 4C-4D, mean wave-1 amplitudes at 8, 16, 32, and 40 kHz was measured in the control and Niclosamide-treated mice before Cisplatin injection and at Day 5 post-Cisplatin injection. The ABR wave-1 amplitude represents the summed activity of the cochlear nerve. Amplitudes from the 85 dB SPL stimuli were compared between groups in the baseline ABR measurements using a two-factor ANOVA (group x frequency), and no group differences were detected (P>0.05).
as §1

[6] = 20 mg/kg/day IP, 4 consecutive days

In the case of O=C(Nc1ccc([N+](=O)[O-])cc1Cl)c1cc(Cl)ccc1O [Niclosamide, 5-chloro-N-(2-chloro-4-nitrophenyl)-2-hydroxy-benzamide], the Cmax [1] is given as 18 µM, the “HC per neuromast counts, compound alone” value (zebrafish neuromast HCs [2]) is given as “higher counts” and the clinical signs (FVB/NJ mice [3]; [6]) is given as “sign of pain and distress including mouse hunch”. For the same molecule, the weight loss (FVB/NJ mice [3]; [6]) was 20-30%, the “weight loss, pain and distress” value (FVB/NJ mice [3]; Niclosamide 10, Ingenol 0.3, Elesclomol 5 mg/kg/day IP, 4 consecutive days) was “None of the mice showed reduced weight loss or signs of pain and distress” and the “general toxicity versus Cisplatin alone” value (FVB/NJ mice [3]; combination with Cisplatin 30 mg/kg single injection) was “no general toxicity”. For the same molecule, the weight loss (FVB/NJ mice [3]; drug IP daily plus 30 mg/kg Cisplatin IP on day 2) was “less than 10%”, the “weight loss or abnormal behavior” value (FVB/NJ mice [3]; maximum IP doses approved by IACUC) was “no weight loss or abnormal behavior” and the survival (FVB/NJ mice [3]; plus 30 mg/kg Cisplatin, through day 5 post-Cisplatin injection) was “all survived”. The “HC survival after NMDA” value (zebrafish neuromast HCs [4]) was “significantly increased HC survival”, the “ABR threshold shifts versus Cisplatin-only mice” value (FVB/NJ mice [5]; 8, 12 and 32 kHz, 10 mg/kg IP, Cisplatin 30 mg/kg) was “significantly reduced ABR threshold shifts” and the “DPOAE threshold shifts versus Cisplatin-only mice” value (FVB/NJ mice [5]; 16 and 32 kHz, 10 mg/kg IP, Day 5 post-Cisplatin) was “significantly reduced DPOAE threshold shifts”. The “HC survival versus Cisplatin group” value (FVB/NJ mice [5]; 30 kHz region) was “more HC survival”, the “outer hair cell quantification, protection against Cisplatin-induced hair cell loss” value (FVB/NJ mice [5]; 32 kHz region, cotreatment) was “full protection” and the “ABR wave-1 amplitudes versus Cisplatin only group” value (FVB/NJ mice [5]; all tested frequencies at 85 dB SPL, Day 5 post-Cisplatin) was “higher amplitudes”.
